Where two headings read alike, the source gives them in different places.
Columns and labels:
[1] = tested on: poly dA-dT; assay: DNA ΔTm poly dA-dT; type: binding; parameters: unit not given here
[2] = tested on: Plasmodium falciparum; assay: in vitro IC50 versus Plasmodium falciparum (P.f.); type: cell-based
[3] = tested on: virulent STIP90° strain of T.b.r.; assay: in vivo T.b.r. mouse model; settings: for In vivo T.b.r. Cures: cures/animals
[4] = tested on: Trypanosoma brucei rhodesiense; assay: in vitro IC50 versus Trypanosoma brucei rhodesiense (T.b.r.); type: cell-based
[5] = Plasmodium falciparum, in vitro, read-out: P.f. IC50
[6] = Trypanosoma brucei, RHODESIENSE

Row | SMILES | DNA ΔTm poly dA-dT [1] | IC50 ([2]; Plasmodium falciparum, in vitro, read-out: IC-50 versus Plasmodium falciparum (p.f.)) | IC50 [2, 5] | In vivo T.b.r. survival days [3] | In vivo T.b.r. Cures [3] | IC50 [4, 6] | IC50 ([4]; Dihydrochloride) | IC50 ([2]; in vitro, read-out: P.f. IC50) | IC50 [4] | IC50 ([2]; Plasmodium falciparum, read-out: P.f. IC50)
1 | Cl.Cl.N=C(N)Nc1ccc2c(c1)Cc1cc(NC(=N)N)ccc1-2 [Compound 5a, 2,7-Bis-guanidino-9H-fluorene Dihydrochloride] | 13.6 | ≤ 0.01 µM | 0.0023 µM | 6 days | 0/4 | 0.024 µM |  |  |  | 
2 | Cl.Cl.N=C(N)Nc1ccc2c(c1)C(=O)c1cc(NC(=N)N)ccc1-2 [Compound 5b, 2,7-Bis-guanidinofluoren-9-one Dihydrochloride] | 6.1 |  | 0.268 µM | 50.75 days | 2/4 | ≤ 0.013 µM | 0.0073 µM |  |  | 
3 | Cl.Cl.N=C(N)Nc1ccc2c(c1)C(=O)c1cc(NC(=N)N)ccc1C2=O [Compound 5c, 2,7-Bis-guanidinoanthraquinone Dihydrochloride] | 7.2 |  | 0.0235 µM | 27 days | 0/4 | 0.128 µM |  |  |  | 
4 | Cl.Cl.Cl.N=C(N)Nc1ccc2cc3ccc(NC(=N)N)cc3nc2c1 [Compound 5d, 3,6-bis-guanidinoacridine Trihydrochloride] | 7.7 |  | 0.227 µM | 16.25 days | 0/4 | 0.067 µM |  |  |  | 
5 | CCOC(=O)NC(=N)Nc1ccc2c(c1)Cc1cc(NC(=N)NC(=O)OCC)ccc1-2 [Compound 7a, 2,7-Bis(N″-ethoxycarbonyl)guanidino-9H-fluorene] | 0.3 |  |  | 18.75 days | 0/4 |  |  | 2.1 µM | 1.4 µM | 
6 | CCOC(=O)NC(=N)Nc1ccc2c(c1)C(=O)c1cc(NC(=N)NC(=O)OCC)ccc1-2 [Compound 7b, 2,7-Bis(N″-ethoxycarbonyl)guanidinofluoren-9-one] | −0.3 |  |  | 6 days | 0/4 |  |  | 3.2 µM | 1.2 µM | 
7 | CCOC(=O)NC(=NC)Nc1ccc2c(c1)Cc1cc(NC(=NC)NC(=O)OCC)ccc1-2 [Compound 7c, 2,7-Bis(N″-ethoxycarbonyl-N′-methyl)guanidino-9H-fluorene] |  |  |  |  |  |  |  | 1 µM | 2.9 µM | 
8 | CCOC(=O)NC(=NC(C)C)Nc1ccc2c(c1)Cc1cc(NC(=NC(C)C)NC(=O)OCC)ccc1-2 [Compound 7d, 2,7-Bis(N″-ethoxycarbonyl-N′-iso-propyl)guanidino-9H-fluorene] | −0.5 |  |  | 17.75 days | 0/4 |  |  | 6.3 µM | 2.5 µM | 
9 | CNC(=N)Nc1ccc2c(c1)Cc1cc(NC(=N)NC)ccc1-2 [Compound 8a, 2,7-Bis(N′-methyl)guanidino-9H-fluorene] | 10.1 |  |  | 52 days | 3/4 |  |  | 0.01 µM | 0.013 µM | 
10 | CC(C)NC(=N)Nc1ccc2c(c1)Cc1cc(NC(=N)NC(C)C)ccc1-2 [Compound 8b, 2,7-Bis(N-iso-propyl)guanidino-9H-fluorene] | 9.3 |  |  | 60 days | 4/4 |  |  | 0.0357 µM | 0.0404 µM | 
11 | c1ccc(N=Nc2ccc3c(c2)Cc2cc(N=Nc4ccccc4)ccc2-3)cc1 [Compound 9a, 2,7-Bis[(phenylimino)amino]-9H-fluorene] | 22 |  |  | 7 days | 0/4 | 0.292 µM |  |  |  | 0.481 µM
12 | c1ccc(N=Nc2ccc3c(c2)Cc2cc(N=Nc4ccccn4)ccc2-3)nc1 [Compound 9b, 2,7-Bis[(2-pyridylimino)amino]-9H-fluorene] | 15.2 |  | 1.2 µM |  |  | 0.894 µM |  |  |  | 

From patent US7825279B2, “Fused ring dicationic anti-protozoan agents and their prodrugs” (The University of North Carolina at Chapel Hill, priority 2003, dated 2010)
